In patent publication US11760773B2, “Small molecule drug conjugates of gemcitabine monophosphate” (MaveriX Oncology, Inc., priority 2018, dated 2023):
Where two headings read alike, the source gives them in different places. Each block holds one compound with its values, some of them ahead of it.

Key:
[1] = test system: UT-SCC-5; experiment: Tumor cell proliferation (alamarBlue) cytotoxicity assay, UT-SCC-5; type: cell-based, human; settings: Homo sapiens; UT-SCC-5, 72 hours treatment
Procedure: (§1) A tumor cell proliferation assay was used to determine cytotoxicity IC50 values for the phosphate prodrug Compounds 1-9, the parent non-phosphorylated SMDC parent compounds, and the effector (gemcitabine) across eight primary early-passage human head and neck squamous cell carcinoma cell lines including UT-SCC-5, UT-SCC-8, UT-SCC-9, UT-SCC-10, UT-SCC-14, UT-SCC-16A, UT-SCC-16B, and UT-SCC-24A.
(§2) UTSCC cells were seeded at 4000 cells/100 I/well on 96-well black clear-bottom tissue culture plate. Cells were incubated at 37° C. and 5% CO2 overnight to allow them to recover and re-attach. The next day cells were treated with the test compound (0-100 μM) for 72 hours. After treatment, cell proliferation was measured by Fluorescent quantitation of alamarBlue reagent. The alamarBlue assay incorporates a fluorometric/colorimetric growth indicator based on detection of metabolic activity. Specifically, resazurin, the active ingredient of alamarBlue reagent, is blue in color and virtually non-fluorescent. Upon entering cells, resazurin is reduced to resorufin, a compound that is red in color and highly fluorescent.
(§3) Continued cell growth maintains a reduced environment, therefore increasing the overall fluorescence and color of the media surrounding cells. The fluorescence intensity of alamarBlue reagent was directly proportional to cell number. To perform the alamarBlue assay, 10 I of alamarBlue reagent was added to each well and the plate was incubated at 37° C. for an additional 2 hour. Fluorescence intensity was measured at an excitation of 530 nm and an emission of 590 nm using a BioTek Synergy™ 2 microplate reader.
(§4) Cell proliferation assays in triplicate were performed at each concentration. The fluorescent intensity data were analyzed using the computer software, Graphpad Prism. In the absence of the compound, the fluorescent intensity (Ft) in each data set was defined as 100%. In the absence of cells, the fluorescent intensity (Fb) in each data set was defined as 0%. The percent cell in the presence of each compound was calculated according to the following equation: % cell=(F−Fb)/(Ft−Fb), where F=the fluorescent intensity in the presence of the compound, Fb=the fluorescent intensity in the absence of cells, and Ft=the fluorescent intensity in the absence of the compound. The values of % cell versus a series of compound concentrations were then plotted using non-linear regression analysis of Sigmoidal dose-response curve generated with the equation Y=B+(T−B)/1+10^((Log EC50-X)×Hill Slope) where Y=percent cell, B=minimum percent cell, T=maximum percent cell, X=logarithm of compound and Hill Slope=slope factor or Hill coefficient. The IC50 value was determined by the concentration causing a half-maximal percent activity.

[2] = test system: UT-SCC-8; experiment: Tumor cell proliferation (alamarBlue) cytotoxicity assay, UT-SCC-8; type: cell-based, human; settings: Homo sapiens; UT-SCC-8, 72 hours treatment
Procedure: as §1, §2, §3, §4

[3] = test system: UT-SCC-24A; experiment: Tumor cell proliferation (alamarBlue) cytotoxicity assay, UT-SCC-24A; type: cell-based, human; settings: Homo sapiens, 72 hours treatment
Procedure: as §1, §2, §3, §4

[4] = Liver microsomal stability, human; type: in vitro ADME; settings: for half-life / Compound Remaining (% of 0 min) 0 min / Compound Remaining (% of 0 min) 5 min / Compound Remaining (% of 0 min) 15 min / Compound Remaining (% of 0 min) 30 min / Compound Remaining (% of 0 min) 45 min / Compound Remaining (% of 0 min) control: human liver microsomes; for microsomal CLint: human, liver microsomes
[5] = Metabolic stability in liver hepatocytes, mouse; type: in vitro ADME; settings: for half-life: read-out: t1/2 mean ± SE
[6] = Solubility / formulation; type: physicochemical
[7] = Human plasma stability; type: in vitro ADME
Procedure: (§5) Method: Assay was carried out in 96-well microtiter plates. Compounds were incubated in replicates (n=2) for 0, 5, 15, 30, and 45 minutes at 37° C. Reaction mixtures (20 μL) contained a final concentration of 3 μM test compound in human plasma. Eucatropine included as positive control to verify assay performance. Linear regression of semi-log plot of % remaining of compounds versus time used to determine the half-life t½ values.

[8] = Rat plasma stability; type: in vitro ADME
Procedure: as §5, with “fresh Sprague Dawley rat” for “human”, “is a” for “included as”, “t1/2” for “t½”

[9] = Human liver S9 stability; type: in vitro ADME; settings: for microsomal CLint: human
[10] = Monkey liver S9 stability; type: in vitro ADME; settings: for microsomal CLint: monkey
[11] = Rat liver S9 stability; type: in vitro ADME; settings: for microsomal CLint: rat
[12] = Liver microsomal stability, dog; type: in vitro ADME; settings: dog liver microsomes
[13] = Liver microsomal stability, rat; type: in vitro ADME; settings: rat liver microsomes
[14] = Liver microsomal stability, mouse; type: in vitro ADME; settings: mouse liver microsomes
[15] = Metabolic stability in liver hepatocytes, across species; type: in vitro ADME; settings: mouse, dog, monkey, rat highest, human lowest, read-out: intrinsic clearance values Cint

SMILES: Nc1ccn([C@@H]2O[C@H](CO)[C@@H](O)C2(F)F)c(=O)n1 [Gemcitabine, gemcitabine]
IC50 [1]: 9 nM
IC50 [2]: 22 nM
IC50 [3]: 14 nM
half-life [4]: 0.335 h
Compound Remaining (% of 0 min) 0 min [4]: 100 % of 0 min
Compound Remaining (% of 0 min) 5 min [4]: 113 % of 0 min
Compound Remaining (% of 0 min) 15 min [4]: 69.1 % of 0 min
Compound Remaining (% of 0 min) 30 min [4]: 48.6 % of 0 min
Compound Remaining (% of 0 min) 45 min [4]: 22.4 % of 0 min
Compound Remaining (% of 0 min) control [4]: 98.1 % of 0 min
microsomal CLint [4]: 68.8 µL/min/mg
Slope Mean ± SE [5]: −0.000512 ± 0.001111
half-life [5]: 22.5 ± 48.9 h

solubility [6]: low to moderate solubility
formulated to ([6]; formulation): 50 mg/mL
Slope Mean ± SE ([7]; 3 μM, 37° C., semi-log plot of % remaining versus time, in min-1 (unit assumed)): 0.001033 ± 0.001249
stability in human plasma ([7]; repeat measurements): stable
Slope Mean ± SE ([8]; Sprague Dawley rat plasma, 3 μM, 37° C.): −0.009305 ± 0.001423
half-life at 3 μM ([8]; Sprague Dawley rat plasma, read-out: t1/2 (converted)): ~1.2 h
half-life at 3 μM ([8]; fresh Sprague Dawley rat plasma, 3 μM, 37° C., read-out: t1/2 Mean ± SE): 1.24 ± 0.19 h
Slope Mean ± SE ([9]; human liver S9): −0.005545 ± 0.000717
half-life ([9]; human liver S9, read-out: t1/2 Mean ± SE): 2.08 ± 0.27 h
microsomal CLint ([9]; liver S9, human liver S9, summary, read-out: S9 intrinsic clearance Clint): < 2.5 µL/min/mg
microsomal CLint ([9]; liver S9, human liver S9, text value, read-out: intrinsic clearance value): 2.22 µL/min/mg
microsomal CLint ([9]; liver S9, human liver S9, read-out: CLint Mean ± SE): 2.22 ± 0.287 µL/min/mg
Slope Mean ± SE ([10]; monkey liver S9): −0.03881 ± 0.002089
half-life ([10]; monkey liver S9, read-out: t1/2 Mean ± SE): 0.298 ± 0.0167 h
microsomal CLint ([10]; liver S9, monkey liver S9, summary, read-out: S9 intrinsic clearance Clint): < 2.5 µL/min/mg
microsomal CLint ([10]; liver S9, monkey liver S9, read-out: CLint Mean ± SE): 15.5 ± 0.836 µL/min/mg
microsomal CLint ([10]; liver S9, monkey liver S9 experiment, read-out: intrinsic clearance value): 15.5 µL/min/mg
Slope Mean ± SE ([11]; rat liver S9): −0.03579 ± 0.001471
intrinsic clearance value ([11]; rat liver S9, text value): ~14 μL/min/mg protein
half-life ([11]; rat liver S9, read-out: t1/2 Mean ± SE): 0.323 ± 0.0133 h
microsomal CLint ([11]; liver S9, rat liver S9, text value, read-out: intrinsic clearance value): 14.3 µL/min/mg
microsomal CLint ([11]; liver S9, rat liver S9, read-out: CLint Mean ± SE): 14.3 ± 0.588 µL/min/mg
half-life [4]: 30.8 h
Compound Remaining (% of 0 min) 0 min [4]: 100 % of 0 min
Compound Remaining (% of 0 min) 5 min [4]: 111 % of 0 min
Compound Remaining (% of 0 min) 15 min [4]: 94.0 % of 0 min
Compound Remaining (% of 0 min) 30 min [4]: 107 % of 0 min
Compound Remaining (% of 0 min) 45 min [4]: 99.9 % of 0 min
Compound Remaining (% of 0 min) control [4]: 102 % of 0 min
microsomal CLint [4]: 0.747 µL/min/mg
microsomal CLint ([4]; text value): 0.75 µL/min/mg
half-life [12]: 2.4 h
microsomal CLint [12]: 9.63 µL/min/mg
Compound Remaining (% of 0 min) 0 min ([12]; 0 min): 100 % of 0 min
Compound Remaining (% of 0 min) 5 min ([12]; 5 min): 97.1 % of 0 min
Compound Remaining (% of 0 min) 15 min ([12]; 15 min): 90.8 % of 0 min
Compound Remaining (% of 0 min) 30 min ([12]; 30 min): 85.7 % of 0 min
Compound Remaining (% of 0 min) 45 min ([12]; 45 min): 80.4 % of 0 min
Compound Remaining (% of 0 min) control ([12]; control): 94.5 % of 0 min
CLint [13]: 297 μL/min/mg protein
half-life [13]: 4.66 min
microsomal CLint [13]: 297 µL/min/mg
Compound Remaining (% of 0 min) 0 min ([13]; 0 min): 100 % of 0 min
Compound Remaining (% of 0 min) 5 min ([13]; 5 min): 64.7 % of 0 min
Compound Remaining (% of 0 min) 15 min ([13]; 15 min): 20.0 % of 0 min
Compound Remaining (% of 0 min) 30 min ([13]; 30 min): 1.81 % of 0 min
Compound Remaining (% of 0 min) 45 min ([13]; 45 min): 0.13 % of 0 min
Compound Remaining (% of 0 min) control ([13]; control): 95.6 % of 0 min
half-life [14]: 1.35 h
microsomal CLint [14]: 17.1 µL/min/mg
Compound Remaining (% of 0 min) 0 min ([14]; 0 min): 100 % of 0 min
Compound Remaining (% of 0 min) 5 min ([14]; 5 min): 102 % of 0 min
Compound Remaining (% of 0 min) 15 min ([14]; 15 min): 78.4 % of 0 min
Compound Remaining (% of 0 min) 30 min ([14]; 30 min): 73.6 % of 0 min
Compound Remaining (% of 0 min) 45 min ([14]; 45 min): 70.7 % of 0 min
Compound Remaining (% of 0 min) control ([14]; control): 93.2 % of 0 min
Slope Mean ± SE [5]: −0.006655 ± 0.00081
half-life [5]: 1.73 ± 0.212 h
microsomal CLint [15]: 3 to 8 µL/min/mg
SMILES: COc1cc(OC)c2oc(COC(=O)Nc3ccn([C@@H]4O[C@H](CO)[C@@H](O)C4(F)F)c(=O)n3)cc2c1 [Int 1-4, (5,7-di(methoxy)benzofuran-2-yl)methyl (1-((2R,4R,5R)-3,3-difluoro-4-hydroxy-5-(hydroxymethyl)tetrahydrofuran-2-yl)-2-oxo-1,2-dihydropyrimidin-4-yl)carbamate]
IC50 [1]: 16 nM
IC50 [2]: 32 nM
IC50 [3]: 20 nM
